BigSolDB 2.1

O=C(Nc1ccncc1)c1cc(C(=O)Nc2ccncc2)cc(C(=O)Nc2ccncc2)c1
solubility (mole fraction)
Conditions	283.15 K	288.15 K	293.15 K	298.15 K	303.15 K	313.15 K	323.15 K
in 2-butanone	0.00034	–	0.000455	–	0.000519	0.000577	0.000675
in acetone	6.66e-06	–	1.54e-05	–	1.86e-05	2.5e-05	3.64e-05
in acetonitrile	7.35e-05	–	9.53e-05	–	0.00012	0.000146	0.000183
in dichloromethane	3.08e-05	4.23e-05	5.41e-05	6e-05	6.77e-05	–	–
in ethanol	4.73e-05	–	6.07e-05	–	7.59e-05	8.97e-05	0.000104
in ethyl acetate	0.000114	–	0.000137	–	0.000153	0.000178	0.000196
in isopropanol	0.000265	–	0.000302	–	0.000355	0.000405	0.000431
in methanol	5.21e-05	–	6.76e-05	–	9.65e-05	0.00013	0.000163
in n-butanol	0.000156	–	0.0002	–	0.000235	0.000297	0.000371
in n-hexane	1.15e-05	–	2.45e-05	–	4.03e-05	5.54e-05	6.95e-05
in n-propanol	0.000217	–	0.000244	–	0.000255	0.000277	0.00029
in water	4.65e-06	–	5.71e-06	–	7.83e-06	8.34e-06	1.6e-05
